{"source": "patent US20230416196A1", "about": "“DIMER OF BIGUANIDINES AND THEIR THERAPEUTIC USES” (INSTITUT CURIE, priority 2020, published 2023)", "key": {"αKG in activated MDM": {"system": "αKG in activated MDM", "assay": "α-Ketoglutarate (αKG) fluorometric quantification in activated MDM", "format": "cell-based, human", "details": "Met 10 mM, LCC-12 10 μM; FIG. 3B", "experimental": "Cell culture. Peripheral blood samples were collected from distinct healthy donors (Etablissement Français du Sang). Pan monocytes were isolated by negative magnetic sorting using microbeads according to the manufacturer's instructions (Miltenyi Biotec, 130-096-537), and cultured in RPMI 1640 supplemented with glutamine (Thermo Fisher Scientific, 61870010), 10% fetal bovine serum and exposed to granulocyte-macrophage colony-stimulating factor (GM-CSF, Miltenyi Biotec, 130-093-866, 100 ng/mL) to induce differentiation into macrophages (MDM). […]\nα-Ketoglutarate (αKG) measurements. αKG was quantified using a fluorometric assay (Abcam, ab83431) according to the manufacturer's protocol. […] Cells were subsequently washed with ice-cold 1×PBS and counted. […] Samples were centrifuged at 13000× g for 15 min and the supernatants collected. αKG levels were measured using a standard curve and a control to subtract pyruvate background levels. Fluorescence intensities (ex. 535 nm; em. 590 nm) were recorded using a Perkin Elmer Wallac 1420 Victor2 Microplate Reader, and data were normalized against cell number. […]"}, "[1]": {"system": "inflammatory macrophages (act. MDM)", "assay": "Flow cytometry of CD80 and CD86 cell surface markers in activated MDM (Example 2)", "format": "cell-based, human", "details": "LCC-12 10 μM; FIG. 4F", "experimental": "Cell culture. Peripheral blood samples were collected from distinct healthy donors (Etablissement Français du Sang). Pan monocytes were isolated by negative magnetic sorting using microbeads according to the manufacturer's instructions (Miltenyi Biotec, 130-096-537), and cultured in RPMI 1640 supplemented with glutamine (Thermo Fisher Scientific, 61870010), 10% fetal bovine serum and exposed to granulocyte-macrophage colony-stimulating factor (GM-CSF, Miltenyi Biotec, 130-093-866, 100 ng/mL) to induce differentiation into macrophages (MDM). At day 5 of differentiation, MDM were treated with lipopolysaccharides (LPS, InvivoGen, tlrl-3pelps, 100 ng/mL, 24 h) and interferon-γ (IFNγ, Miltenyi Biotec, 130-096-484, 20 ng/mL, 24 h) to generate activated MDM (act. MDM) and were co-treated with metformin (Met, 1,1-dimethylbiguanid hydrochloride, Alfa Aesar, J63361, 10 mM, 24 h) or LCC-12 (in-house, 10 μM, 24 h) as indicated.\nFlow cytometry. […] Macrophages were analyzed with an antibody panel consisting of antibodies against the following cell surface proteins: CD44, CD80, CD86 and TfR1. The data were analyzed with FlowJo software v. […] Flow cytometry analysis of lysosomal iron content: Lysosomal iron was monitored by incubating cells at 37° C. with 5% CO2 in medium containing RhoNox-M (in-house, 1 μM, 1 h), before flow analysis of fluorescence intensity."}, "mice challenged with LPS": {"system": "mice challenged with LPS", "assay": "Murine model of LPS-induced severe inflammation", "format": "in vivo, BALB/c mice", "details": "LPS 20 mg/kg IP; LCC-12 0.3 mg/kg IP; dexamethasone 10 mg/kg PO as comparator; FIG. 4D", "experimental": "Murine model of LPS-induced severe inflammation. Animal work was conducted at Fidelta Ltd according to 2010/63/EU and National legislation regulating the use of laboratory animals in scientific research and for other purposes (Official Gazette 55/13). An Institutional Committee on Animal Research Ethics (CARE-Zg) oversaw that animal-related procedures were not compromising the animal welfare. LPS (Sigma-Aldrich, L2630, 20 mg/kg) was injected intraperitoneally to male BALB/c mice (8 weeks-old). LCC-12 (0.3 mg/kg, IP, n=10) or vehicle (0.9% NaCl, 10 mL/kg, IP, n=10) were injected 2 h prior LPS challenge, then 24 h, 48 h, 72 h and 96 h post challenge. Dexamethasone (10 mg/kg, PO, n=10) was given 1 h prior LPS challenge. Incidence of mortality was monitored every 4 h up to 48 h, then twice daily."}, "lymphocytes (CD4, CD8)": {"system": "lymphocytes (CD4, CD8)", "assay": "Activation of CD4 and CD8 lymphocytes (CD25, CD69 flow cytometry)", "format": "cell-based, human", "details": "LCC-12 10 μM, 48 h, CD3/CD28 activation; FIG. 6A-B", "experimental": "(§1) CD4 Lymphocytes. Peripheral blood samples were collected from healthy donors (Etablissement Français du Sang). CD4 lymphocytes were isolated by negative magnetic sorting using microbeads according to the manufacturer's instructions (Miltenyi Biotec, 130-096-533) and cultured in RPM11640 supplemented with glutamine and 10% fetal bovine serum. CD4 lymphocytes were activated for 48 h using CD3/CD28 antibodies (2.5 μg/mL), in presence of LCC-12 (10 μM). The activation status of the lymphocytes was assessed by measuring CD25 and CD69 surface markers by flow cytometry.\nas §1, with “CD8” for “CD4”, “130-096-495)” for “130-096-533)”, “activated” for “activated for”"}, "monocytes": {"system": "monocytes", "assay": "Activation of monocytes (CD25, CD80 flow cytometry)", "format": "cell-based, human", "details": "LCC-12 10 μM, 24 h, LPS; FIG. 6D", "experimental": "Monocytes. Peripheral blood samples were collected from healthy donors (Etablissement Français du Sang). Pan monocytes were isolated by negative magnetic sorting using microbeads according to the manufacturer's instructions (Miltenyi Biotec, 130-096-537), and cultured in RPMI 1640 supplemented with glutamine, 10% fetal bovine serum. Monocytes were treated with lipopolysaccharides (LPS, 100 ng/mL, 24 h) to generate activated monocytes and were co-treated with LCC-12 (in-house, 10 μM, 24 h). The activation status of the monocytes was assessed by measuring CD25 and CD80 surface markers by flow cytometry."}, "Maximum tolerated dose": {"assay": "Maximum tolerated dose", "details": "stated relative to the 0.3 mg/kg/day dose used"}}}
{"smiles": "N=C(N)NC(=N)NCCCCCCCCCCCCNC(=N)NC(=N)N", "note": "[LCC-12, lipophilic copper clamp C12]", "values": [{"measurement": "increase of αKG in activated MDM", "setting": "αKG in activated MDM", "result": "more potent than Met at a dose 1000-fold lower"}, {"measurement": "production of inflammatory macrophages according to CD80 and CD86 cell surface markers", "setting": "[1]", "result": "interfered with the production of inflammatory macrophages"}, {"measurement": "survival of mice challenged with LPS", "setting": "mice challenged with LPS", "result": "increased the survival of mice challenged with LPS to a similar extent than dexamethasone"}, {"measurement": "activation of lymphocytes", "setting": "lymphocytes (CD4, CD8)", "result": "decreases the activation"}, {"measurement": "activation of monocytes", "setting": "monocytes", "result": "decreases the activation"}, {"measurement": "maximum tolerated dose (MTD)", "setting": "Maximum tolerated dose", "result": "0.3 mg/kg/day, a dose 10 times lower than the maximum tolerated dose"}]}
